Patent US7683181B2, “Cyclic N-[1,3,4]-thiadiazol-2-yl-benzene sulfonamides, pharmaceutical compositions and methods for the therapeutic use thereof” (Sanofi-aventis, priority 2005, dated 2010)

Tests used:
human PPARdelta = biological target: T1, human PPARdelta (Homo sapiens, UniProt Q03181); experiment: cellular PPARdelta assay (stably transfected HEK luciferase reporter cell line); assay type: cell-based; settings: GR-GAL4-humanPPARdelta-LBD
T1 construct: amino acids S139-Y441; expressed in transfected cells
T1 sequence (Q03181 139-441): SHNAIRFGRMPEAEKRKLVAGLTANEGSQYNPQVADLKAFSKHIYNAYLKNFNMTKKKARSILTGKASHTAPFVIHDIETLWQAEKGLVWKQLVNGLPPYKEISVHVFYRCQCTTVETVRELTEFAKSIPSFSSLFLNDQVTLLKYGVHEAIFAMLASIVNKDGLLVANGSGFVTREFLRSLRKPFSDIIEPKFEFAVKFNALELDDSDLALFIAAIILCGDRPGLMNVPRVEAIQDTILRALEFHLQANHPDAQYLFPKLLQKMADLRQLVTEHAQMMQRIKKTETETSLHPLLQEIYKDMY
Description: The assay plates are incubated in an incubator at 37° C. and 5% CO2 for 24 h. […]
The raw data from the luminometer are transferred into a Microsoft Excel file. Dose-effect plots and EC50 values of PPAR agonists are calculated using the XL.Fit program as specified by the manufacturer (IDBS).
The potency of substances which bind to human PPARdelta and activate it in an agonistic manner was analyzed through the determination of the EC50 values of PPAR agonists in the cellular PPARdelta assay using a stably transfected HEK cell line (HEK=human embryo kidney) which is referred to here as PPARdelta reporter cell line. In analogy to the assay described for PPARalpha, the PPARdelta reporter cell line also contains two genetic elements, a luciferase reporter element (pdeltaM-GAL4-Luc-Zeo) and a PPARdelta fusion protein (GR-GAL4-humanPPARdelta-LBD) which mediates expression of the luciferase reporter element depending on a PPARdelta ligand. The stably and constitutively expressed fusion protein GR-GAL4-humanPPARdelta-LBD binds in the cell nucleus of the PPARdelta reporter cell line via the GAL4 protein portion to the GAL4 DNA binding motifs 5′-upstream of the luciferase reporter element which is stably integrated in the genome of the cell line. There is only little expression of the luciferase reporter gene in the absence of a PPARdelta ligand if fatty acid-depleted fetal calf serum (cs-FCS) is used in the assay. PPARdelta ligands bind and activate the PPARdelta fusion protein and thereby stimulate expression of the luciferase reporter gene. The luciferase which is formed can be detected by means of chemiluminescence via an appropriate substrate.
The production of the stable PPARdelta reporter cell line is based on a stable HEK-cell clone which was stably transfected with a luciferase reporter element. This step was already described above in the section “construction of the PPARalpha reporter cell line”. […]
The activity of PPARdelta agonists is determined in a 3-day assay in exact analogy to the procedure already described for the PPARalpha reporter cell line except that the PPARdelta reporter cell line and a specific PPARdelta agonist was used as a standard to control test efficacy.

human PPARgamma = biological target: T2, human PPARgamma (Homo sapiens, UniProt P37231); experiment: cellular PPARgamma assay (transiently transfected HEK cells, luciferase reporter); assay type: cell-based; settings: GAL4-humanPPARgammaLBD
T2 construct: amino acids I152-Y475; expressed in transfected cells; host or cells: HEK cells, transient transfection of pcDNA3-GAL4-humanPPARgammaLBD
T2 sequence (P37231 with tags, fused parts or gaps isoform P37231-2 limits assumed): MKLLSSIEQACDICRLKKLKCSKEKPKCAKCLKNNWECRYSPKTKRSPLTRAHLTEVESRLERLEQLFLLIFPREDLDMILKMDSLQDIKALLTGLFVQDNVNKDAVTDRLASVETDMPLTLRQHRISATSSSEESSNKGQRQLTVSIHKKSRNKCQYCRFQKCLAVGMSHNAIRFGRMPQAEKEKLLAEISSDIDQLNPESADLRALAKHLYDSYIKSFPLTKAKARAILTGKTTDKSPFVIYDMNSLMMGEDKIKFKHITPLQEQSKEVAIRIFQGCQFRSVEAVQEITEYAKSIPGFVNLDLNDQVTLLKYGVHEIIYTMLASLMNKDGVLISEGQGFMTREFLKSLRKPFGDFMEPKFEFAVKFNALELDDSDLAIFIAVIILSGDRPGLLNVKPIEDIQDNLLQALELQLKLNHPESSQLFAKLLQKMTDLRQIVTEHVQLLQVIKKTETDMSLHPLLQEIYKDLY
Excerpt: Determination of EC50 values of PPAR agonists in the cellular PPARgamma assay
A transient transfection system is employed to determine the cellular PPARgamma activity of PPAR agonists. It is based on the use of a luciferase reporter plasmid (pGL3basic-5×GAL4-TK) and of a PPARgamma expression plasmid (pcDNA3-GAL4-humanPPARgammaLBD). Both plasmids are transiently transfected into human embryonic kidney cells (HEK cells). There is then expression in these cells of the fusion protein GAL4-humanPPARgammaLBD which binds to the GAL4 binding sites of the reporter plasmid. In the presence of a PPARgamma-active ligand, the activated fusion protein GAL4-humanPPARgammaLBD induces expression of the luciferase reporter gene, which can be detected in the form of a chemiluminescence signal after addition of a luciferase substrate. As a difference from the stably transfected PPARalpha reporter cell line, in the cellular PPARgamma assay the two components (luciferase reporter plasmid and PPARgamma expression plasmid) are transiently transfected into HEK cells because stable and permanent expression of the PPARgamma fusion protein is cytotoxic.
The luciferase reporter plasmid pGL3basic-5×GAL4-TK is based on the vector pGL3basic from Promega. The reporter plasmid is prepared by cloning five binding sites of the yeast transcription factor GAL4 (each binding site with the sequence 5′-CTCGGAGGACAGTACTCCG-3′), together with a 160 bp-long thymidine kinase promoter section (Genbank Accession #AF027128) 5′-upstream into pGL3basic. 3′-downstream of the thymidine kinase promoter is the complete luciferase gene from Photinus pyralis (Genbank Accession #M15077) which is already a constituent of the plasmid pGL3basic used. The cloning and sequencing of the reporter plasmid pGL3basic-5×GAL4-TK took place in analogy to the description in Sambrook J. et. al. (Molecular cloning, Cold Spring Harbor Laboratory Press, 1989).
The PPARgamma expression plasmid pcDNA3-GAL4-humanPPARgammaLBD was prepared by first cloning the cDNA coding for amino acids 1-147 of the yeast transcription factor GAL4 (Genbank Accession #P04386) into the plasmid pcDNA3 (from Invitrogen) 3′-downstream of the cytomegalovirus promoter. Subsequently, the cDNA of the ligand-binding domain (LBD) of the human PPARgamma receptor (amino acids I152-Y475; Accession #g1480099) 3′-downstream of the GAL4 DNA binding domain. Cloning and sequencing of the PPARgamma expression plasmid pcDNA3-GAL4-humanPPARgammaLBD again took place in analogy to the description in Sambrook J. et. al. (Molecular cloning, Cold Spring Harbor Laboratory Press, 1989). […]
The activity of PPARgamma agonists is determined in a 4-day assay which is described below. […]

PPARdelta [1] = settings: diabetic animal model; cited from earlier work
PPARdelta [2] = settings: obese, insulin resistant rhesus monkeys; cited from earlier work

| Structure (SMILES) | EC50 (human PPARdelta) [nM] | EC50 (human PPARgamma) [nM] | further results |
| --- | --- | --- | --- |
| CCOc1cc(C(F)(F)F)ccc1C(=O)N[C@@H]1CCC[C@@H]1c1ccc(S(=O)(=O)Nc2nnc(C(C)C)s2)cc1 (relative stereo) [Example 3, 2-Ethoxy-N-{cis-2-[4-(5-isopropyl-[1,3,4]thiadiazol-2-ylsulfamoyl)-phenyl]-cyclopentyl}-4-trifluoromethyl-benzamide] | 240 | 230 |  |
| CCCc1c(OCCCOc2ccc(OCC(=O)O)cc2)ccc(C(C)=O)c1O [Example L-165041] |  |  | plasma cholesterol (PPARdelta [1]): raises |
| CCOc1cc(C(F)(F)F)ccc1C(=O)NCC1(c2ccc(S(=O)(=O)Nc3nnc(C(C)C)s3)cc2)CCCC1 [Example 4, 2-Ethoxy-N-{1-[4-(5-isopropyl-[1,3,4]thiadiazol-2-ylsulfamoyl)-phenyl]-cyclopentylmethyl}-4-trifluoromethyl-benzamide] | 21 | 7 |  |
| CCOc1cc(C(F)(F)F)ccc1C(=O)NCC1(c2ccc(S(=O)(=O)Nc3nnc(C(C)C)s3)cc2)CCCCC1 [Example 1, 2-Ethoxy-N-{1-[4-(5-isopropyl-[1,3,4]thiadiazol-2-ylsulfamoyl)-phenyl]-cyclohexylmethyl}-4-trifluoromethyl-benzamide] | 120 | > 10000 |  |
| Cc1cc(SCc2sc(-c3ccc(C(F)(F)F)cc3)nc2C)ccc1OCC(=O)O [GW501516] |  |  | HDL-cholesterol (PPARdelta [2]): raises; insulin levels (PPARdelta [2]): decreases; plasma LDL-cholesterol (PPARdelta [2]): decreases; triglycerides (PPARdelta [2]): decreases |
| CCOc1cc(C(F)(F)F)ccc1C(=O)N[C@@H]1CCC[C@H]1c1ccc(S(=O)(=O)Nc2nnc(C(C)C)s2)cc1 (relative stereo) [Example 2, 2-Ethoxy-N-{trans-2-[4-(5-isopropyl-[1,3,4]thiadiazol-2-ylsulfamoyl)-phenyl]-cyclopentyl}-4-trifluoromethyl-benzamide] | 26 | 430 |  |
